Structures can show the parent of a compound that is named as a salt. Where two headings read alike, the source gives them in different places.
How the values were obtained:
BCL-2 = BCL-2 (Homo sapiens (Human), UniProt P10415); test: Protein-protein interaction assay BCL-2/Bad BH3 peptide (BCL-2 assay, TR-FRET); format: binding; conditions: read-out: BCL-2 Assay IC50 (median)
Procedure, shortened: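 TR-FRET competition: 665/620 nm emission ratio after 330-350 nm excitation, normalized to DMSO controls and fitted to a 4-parameter model for IC50. Used 1 nM His-BCL-2 (residues 1-211) with 1 nM biotin-Bad BH3 tracer, Tris pH 7 with NaCl, KF, DTT. Compound/protein preincubation 10 min at 22° C. Read after 1 h 22° C plus overnight 4° C.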

AMO-1 cells = test: Antiproliferation assay AMO-1 (Assay 7); format: cell-based
Procedure, shortened: (§1)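 Anti-proliferative effect was measured by CellTiter-Glo ATP luminescence after 72 h compound exposure at 37° C, following overnight plating. IC50s were derived using a parallel time-zero plate and DMSO-treated controls as reference points.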

HMC-1-8 cells = test: Antiproliferation assay HMC-1-8 (Assay 7); format: cell-based
Procedure, shortened: as §1

[1] = Homo sapiens, AMO1, 72 h, 72 h, CellTiter-Glo; read-out: Antiproli AMO-1 IC50 median
[2] = 72 h, CellTiter-Glo, read-out: Antiproli HMC-1-8 IC50 median
[3] = read-out: Antiproli AMO-1 IC50 median; 72 h, CellTiter-Glo
[4] = 72 h, CellTiter-Glo; read-out: Antiproli AMO-1 IC50 median
[5] = 72 h, CellTiter-Glo; read-out: Antiproli HMC-1-8 IC50 median
[6] = read-out: Antiproli HMC-1-8 IC50 median; 72 h, CellTiter-Glo

BCL-2, sequence (P10415 1-211): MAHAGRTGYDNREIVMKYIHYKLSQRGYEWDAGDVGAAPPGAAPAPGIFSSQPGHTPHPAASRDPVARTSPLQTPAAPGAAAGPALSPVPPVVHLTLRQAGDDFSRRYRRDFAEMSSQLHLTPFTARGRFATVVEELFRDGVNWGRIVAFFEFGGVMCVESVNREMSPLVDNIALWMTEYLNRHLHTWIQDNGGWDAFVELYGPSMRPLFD

| IC50 (BCL-2) [µM] | SMILES | IC50 (AMO-1 cells; [1]) [µM] | IC50 (HMC-1-8 cells; [2]) [µM] | IC50 (AMO-1 cells; [3]) [µM] | IC50 (HMC-1-8 cells; 72 h, read-out: Antiproli HMC-1-8 IC50 median, 72 h, CellTiter-Glo) [µM] | IC50 (AMO-1 cells; [4]) [µM] | IC50 (HMC-1-8 cells; [5]) [µM] | IC50 (HMC-1-8 cells; [6]) [µM] |
| --- | --- | --- | --- | --- | --- | --- | --- | --- |
| > 20 | CCc1c2c(nn1C)C(CCO)OCCCCn1c(C(=O)O)c(CCCOc3cccc4cc(F)ccc34)c3ccc(Cl)c-2c31 (racemic) [Example 44, (rac)-4-chloro-3-ethyl-7-{3-[(6-fluoronaphthalen-1-yl)oxy]propyl}-(15-rac)-(2-hydroxyethyl)-2-methyl-2,10,11,12,13,15-hexahydropyrazolo[4′,3′:9,10][1,6]oxazacycloundecino[8,7,6-hi]indole-8-carboxylic Acid] | 0.161 | 2.63 | – | – | – | – | – |
| 15.9 | CCc1c2c(nn1C)C(CC(C)(C)O)OCCCCn1c(C(=O)O)c(CCCOc3cccc4cc(F)ccc34)c3ccc(Cl)c-2c31 (racemic) [Example 52, (rac)-4-chloro-3-ethyl-7-{3-[(6-fluoronaphthalen-1-yl)oxy]propyl}-(15-rac)-(2-hydroxy-2-methylpropyl)-2-methyl-2,10,11,12,13,15-hexahydropyrazolo[4′,3′:9,10][1,6]oxazacycloundecino[8,7,6-hi]indole-8-carboxylic Acid] | 0.107 | 3.19 | – | – | – | – | – |
| > 20 | Cc1c2c(nn1C)C(C1CC1)OCCCCn1c(C(=O)O)c(CCCOc3cccc4ccccc34)c3ccc(Cl)c-2c31 (single isomer, unassigned; enantiomer 1) [Example 35, (+)-4-chloro-15-cyclopropyl-2,3-dimethyl-7-{3-[(naphthalen-1-yl)oxy]propyl}-2,10,11,12,13,15-hexahydropyrazolo[4′,3′:9,10][1,6]oxazacycloundecino[8,7,6-hi]indole-8-carboxylic Acid N-ethylethanamine Salt (Enantiomer 1)] | – | – | 3.71 | 19.7 | – | – | – |
| > 20 | CCc1c2c(nn1C)C(CCN1CCOCC1)OCCCCn1c(C(=O)O)c(CCCOc3cccc4cc(F)ccc34)c3ccc(F)c-2c31 (single isomer, unassigned; enantiomer 1) [Example 50, (+)-3-ethyl-4-fluoro-7-{3-[(6-fluoronaphthalen-1-yl)oxy]propyl}-2-methyl-15-[2-(morpholin-4-yl)ethyl]-2,10,11,12,13,15-hexahydropyrazolo[4′,3′:9,10][1,6]oxazacycloundecino[8,7,6-hi]indole-8-carboxylic Acid (Enantiomer 1)] | – | – | – | – | 0.0654 | 0.392 | – |
| > 20 | Cc1c2c(nn1C)C(CCO)OCCCCn1c(C(=O)O)c(CCCOc3cccc4ccccc34)c3ccc(Cl)c-2c31 (single isomer, unassigned; enantiomer 2) [Example 32, (−)-4-chloro-15-(2-hydroxyethyl)-2,3-dimethyl-7-{3-[(naphthalen-1-yl)oxy]propyl}-2,10,11,12,13,15-hexahydropyrazolo[4′,3′:9,10][1,6]oxazacycloundecino[8,7,6-hi]indole-8-carboxylic Acid (Enantiomer 2)] | – | – | – | – | 25.6 | > 33 | – |
| > 20 | CCc1c2c(nn1C)C(CCN1CCOCC1)OCCCCn1c(C(=O)O)c(CCCOc3cccc4cc(F)ccc34)c3ccc(F)c-2c31 (racemic) [Example 49, (rac)-3-Ethyl-4-fluoro-7-{3-[(6-fluoronaphthalen-1-yl)oxy]propyl}-2-methyl-(15-rac)-[2-(morpholin-4-yl)ethyl]-2,10,11,12,13,15-hexahydropyrazolo[4′,3′:9,10][1,6]oxazacycloundecino[8,7,6-hi]indole-8-carboxylic Acid] | 0.0767 | 1.06 | – | – | – | – | – |
| > 20 | Cc1c2c(nn1C)C(CCO)OCCCCn1c(C(=O)O)c(CCCOc3cccc4ccccc34)c3ccc(Cl)c-2c31 (single isomer, unassigned; enantiomer 1) [Example 31, (+)-4-chloro-15-(2-hydroxyethyl)-2,3-dimethyl-7-{3-[(naphthalen-1-yl)oxy]propyl}-2,10,11,12,13,15-hexahydropyrazolo[4′,3′:9,10][1,6]oxazacycloundecino[8,7,6-hi]indole-8-carboxylic Acid (Enantiomer 1)] | – | – | – | – | 0.326 | 6.8 | – |

| SMILES | IC50 (BCL-2) [µM] | IC50 (AMO-1 cells; [1]) [µM] | IC50 (HMC-1-8 cells; [2]) [µM] | IC50 (AMO-1 cells; [3]) [µM] | IC50 (HMC-1-8 cells; 72 h, read-out: Antiproli HMC-1-8 IC50 median, 72 h, CellTiter-Glo) [µM] | IC50 (AMO-1 cells; [4]) [µM] | IC50 (HMC-1-8 cells; [5]) [µM] | IC50 (HMC-1-8 cells; [6]) [µM] |
| --- | --- | --- | --- | --- | --- | --- | --- | --- |
| CCc1c2c(nn1C)C(CCOC)OCCCCn1c(C(=O)O)c(CCCOc3cccc4cc(F)ccc34)c3ccc(Cl)c-2c31 (racemic) [Example 41, (rac)-4-chloro-3-ethyl-7-{3-[(6-fluoronaphthalen-1-yl)oxy]propyl}-(15-rac)-(2-methoxyethyl)-2-methyl-2,10,11,12,13,15-hexahydropyrazolo[4′,3′:9,10][1,6]oxazacycloundecino[8,7,6-hi]indole-8-carboxylic Acid] | 18.1 | 0.135 | 1.31 | – | – | – | – | – |
| CCc1c2c(nn1C)C(CCC1CCOCC1)OCCCCn1c(C(=O)O)c(CCCOc3cccc4cc(F)ccc34)c3ccc(Cl)c-2c31 (racemic) [Example 60, (rac)-4-chloro-3-ethyl-7-{3-[(6-fluoronaphthalen-1-yl)oxy]propyl}-2-methyl-(15-rac)-[2-(oxan-4-yl)ethyl]-2,10,11,12,13,15-hexahydropyrazolo[4′,3′:9,10][1,6]oxazacycloundecino[8,7,6-hi]indole-8-carboxylic Acid] | 14.1 | 0.0929 | 0.951 | – | – | – | – | – |
| Cc1c2c(nn1C)C(CCN1CCOCC1)OCCCCn1c(C(=O)O)c(CCCOc3cccc4cc(F)ccc34)c3ccc(F)c-2c31 (single isomer, unassigned; enantiomer 2) [Example 21, 4-fluoro-7-{3-[(6-fluoronaphthalen-1-yl)oxy]propyl}-2,3-dimethyl-15-[2-(morpholin-4-yl)ethyl]-2,10,11,12,13,15-hexahydropyrazolo[4′,3′:9,10][1,6]oxazacycloundecino[8,7,6-hi]indole-8-carboxylic Acid (Enantiomer 2)] | > 20 | > 33 | 13.3 | – | – | – | – | – |
| CCc1c2c(nn1C)C(CCN1CCC(F)(F)C1)OCCCCn1c(C(=O)O)c(CCCOc3cccc4cc(F)ccc34)c3ccc(Cl)c-2c31 (single isomer, unassigned; enantiomer 2) [Example 57, 4-chloro-15-[2-(3,3-difluoropyrrolidin-1-yl)ethyl]-3-ethyl-7-{3-[(6-fluoronaphthalen-1-yl)oxy]propyl}-2-methyl-2,10,11,12,13,15-hexahydropyrazolo[4′,3′:9,10][1,6]oxazacycloundecino[8,7,6-hi]indole-8-carboxylic Acid N-ethylethanamine Salt (Enantiomer 2)] | > 20 | – | – | 4.52 | – | – | – | 13.6 |
| CCc1c2c(nn1C)C(CCOC)OCCCCn1c(C(=O)O)c(CCCOc3cccc4cc(F)ccc34)c3ccc(Cl)c-2c31 (single isomer, unassigned; enantiomer 1) [Example 42, (+)-4-chloro-3-ethyl-7-{3-[(6-fluoronaphthalen-1-yl)oxy]propyl}-15-(2-methoxyethyl)-2-methyl-2,10,11,12,13,15-hexahydropyrazolo[4′,3′:9,10][1,6]oxazacycloundecino[8,7,6-hi]indole-8-carboxylic Acid—N-ethylethanamine Salt (Enantiomer 1)] | > 20 | – | – | 0.0969 | – | – | – | 1.08 |
